Measured values as given in patent publication EP0490667B1, “HIV protease inhibitors” (priority 1990, dated 1992).

Each molecule was assayed against T1, chemically synthesized HIV protease (Human immunodeficiency virus type 1 group M subtype B, UniProt P12497, C555A/C583A). Conditions: inhibitor 5 µM final concentration (Tables 1-2).
T1 construct: The HIV protease was chemically synthesized; made in house; host or cells: chemical synthesis (no expression host)
Assay type: biochemical
Description: The HPLC condition was as followes. Column: VYDAC 218 TP 54, C18 • Solvent A: 0.1% trifluoroacetic acid aqueous solution • Solvent B: acetonitrile • Gradient: B was increased in 1.0%/min from 100% of A,

Row | Molecule | Residual Activity (%)
1 | 3-Phenylpropionyl-Msa-(2S,3S)-AHPBA-Pro-Ile-Val-NH2 [Example 62] | 3.2%
2 | PhCH2-O-CO-Asn-(2S,3S)-AHPBA-Pro-NH-CH2-C6H11 [Example 49] | 51.9%
3 | Benzyloxycarbonyl-Val-(2R,3S)-AHPBA-Phe-NH-CH2-CH(CH3)2 [Example JJ] | 84.9%
4 | Benzyloxycarbonyl-Val-(2R,3S)-AHPBA-Phe-Val-NH-CH2-CH(CH3)2 [Example HH] | 83.4%

Same assay, conditions: inhibitor 1 mM (Tables 1-2)

Row | Molecule | Residual Activity (%)
5 | Thiophenecarbonyl-Asn-(2S,3S)-AHPBA-Pro-Ile-Val-NH2 [Example 67] | 4.9%
6 | Furancarbonyl-Asn-(2S,3S)-AHPBA-Pro-Ile-Val-NH2 [Example 65] | 9.3%

Same assay, conditions: inhibitor 1mM as headed in Tables 3-6

Row | Molecule | Residual Activity (%)
7 | Benzyloxycarbonyl-Asn-(2S,3S)-AHPBA-(D)-Pip-NH-tBu [Example 79] | 84.0%
8 | Benzyloxycarbonyl-Asn-(2S,3S)-AHPBA-Pro-NH-CH(C2H5)2 [Example 89] | <10%
9 | 1-Naphthoxyacetyl-Msa-(2S,3S)-AHPBA-Thz-NH-chex-ol [Example 158] | <10%
10 | Benzyloxycarbonyl-Asn-(2S,3S)-AHPBA-(L)-Pip-NH-tBu [Example 78] | 11.7%
11 | Benzyloxycarbonyl-Asn-(2S,3S)-AHPBA-Pro-Aib-NH2 [Example 93] | <10%
12 | Benzyloxycarbonyl-Asn-(2S,3S)-AHPBA-Inc-NH-tBu [Example 96] | 95.2%
13 | Benzyloxycarbonyl-Asn-(2S,3S)-AHPBA-Hyp(Bzl)-NH-tBu [Example 95] | 34.6%
14 | Benzyloxycarbonyl-Asn-(2S,3S)-AHPBA-Pro-NH-tAmyl [Example 87] | 5.8%
15 | Benzyloxycarbonyl-Asn-(2S,3S)-AHPBA-Thz-NH-tBu [Example 82] | 1.3%
16 | Benzyloxycarbonyl-Asn-(2S,3S)-AHPBA-Pro-O-tBu [Example 86] | 12.6%
17 | Benzyloxycarbonyl-Asn-(2S,3S)-AHPBA-Pro-NH-CH2-C(CH3)3 [Example 83] | 12.4%
18 | Benzyloxycarbonyl-Asn-(2S,3S)-AHPBA-Pro-NH-cyclopropyl [Example 88] | <10%

Same assay, conditions: inhibitor 5mM as headed in Tables 3-6

Row | Molecule | Residual Activity (%)
19 | 1-Naphthoxyacetyl-Mta-(2S,3S)-AHPBA-Thz-NH-tBu [Example 162] | 2.9%
20 | CS(=O)(=O)C[C@H](NC(=O)COc1cccc2ccccc12)C(=O)N[C@@H](Cc1ccccc1)[C@H](O)C(=O)N1CSC[C@H]1C(=O)N[C@H](C(N)=O)c1ccccc1 [Example 157, 1-Naphthoxyacetyl-Msa-(2S,3S)-AHPBA-Thz-Phg-NH2] | 93.9%
21 | 1-Naphthoxyacetyl-Asn-(2S,3S)-AHPBA-Thz-NH-cyclopentyl [Example 128] | 10.5%
22 | m-(Piper-CO-)Ph-O-CH2-CO-Msa-(2S,3S)-AHPBA-Thz-NH-tBu [Example 167] | 25.4%
23 | Benzyloxycarbonyl-Asn-(2S,3S)-AHPBA-Dmp-NH2 [Example 188] | 98.1%
24 | Benzyloxycarbonyl-Asn-(2S,3S)-AHPBA-Pdp-NH-tBu [Example 164] | 49.8%
25 | CC(CNC(=O)[C@@H]1CSCN1C(=O)[C@@H](O)[C@H](Cc1ccccc1)NC(=O)[C@H](CS(C)(=O)=O)NC(=O)COc1cccc2ccccc12)C(N)=O (stereo partly drawn) [Example 174, 1-Naphthoxyacetyl-Msa-(2S,3S)-AHPBA-Thz-BAIB-NH2] | 46.6%
26 | Benzyloxycarbonyl-Asn-(2S,3S)-AHPBA-Pro-NH-C(CH3)2-CH2-OH [Example 99] | 62.2%
27 | PhCH2-O-CO-Asn-(2S,3S)-ASPBA-(L)-Tic-NH-tBu [Example 102] | 89.2%
28 | PhCH2-O-CO-Asn-(2S,3S)-AHPBA-(D)-Tic-NH-tBu [Example 103] | 91.4%
29 | Benzyloxycarbonyl-Asn-(2S,3S)-AHPBA-Ccp-NH-tBu [Example 187] | 99.0%
30 | CC(CC(N)=O)NC(=O)[C@@H]1CSCN1C(=O)[C@@H](O)[C@H](Cc1ccccc1)NC(=O)[C@H](CS(C)(=O)=O)NC(=O)COc1cccc2ccccc12 (stereo partly drawn) [Example 175, 1-Naphthoxyacetyl-Msa-(2S,3S)-AHPBA-Thz-BANB-NH2] | 33.0%
31 | Benzyloxycarbonyl-Asn-(2S,3S)-AHPBA-Dtc-NH2 [Example 177] | 74.2%
32 | Bis(4-chlorophenyl)methyloxyacetyl-Asn-(2S,3S)-AHPBA-Pro-NH-tBu [Example 94] | 37.0%
33 | CS(=O)(=O)C[C@H](NC(=O)COc1cccc2ccccc12)C(=O)N[C@@H](Cc1ccccc1)[C@H](O)C(=O)N1CSC[C@H]1C(=O)NCCCC(N)=O [Example 173, 1-Naphthoxyacetyl-Msa-(2S,3S)-AHPBA-Thz-GABA-NH2] | 65.0%
34 | 2-Quinolinecarbonyl-Asn-(2S,3S)-AHPBA-Pro-NH-tBu [Example 138] | 27.3%
35 | Benzyloxycarbonyl-Asn-(2S,3S)-AHPBA-Dmp-NH-tBu [Example 182] | 26.8%
36 | 1-Isoquinolinecarbonyl-Asn-(2S,3S)-AHPBA-Pro-NH-tBu.AcOH [Example 140] | 72.8%
37 | Benzyloxycarbonyl-Asn-(2S,3S)-AHPBA-Pro-NH-sBu [Example 176] | 82.6%
38 | Benzyloxycarbonyl-Asn-(2S,3S)-AHPBA-Php-NH-tBu [Example 184] | 16.8%
39 | CC(C)(C)NC(=O)[C@@H]1CSCN1C(=O)[C@@H](O)[C@H](Cc1ccccc1)NC(=O)[C@H](CS(C)(=O)=O)NC(=O)COc1cccc(C(=O)N2CCOCC2)c1 [Example 168, m-(Morph-CO)-Ph-O-CH2-CO-Msa-(2S,3S)-AHPBA-Thz-NH-tBu] | 44.5%
40 | 1-Naphthoxyacetyl-Msa-(2S,3S)-AHPBA-Oic-NH-tBu [Example 146] | 97.5%
41 | CS(=O)(=O)C[C@H](NC(=O)COc1cccc2ccccc12)C(=O)N[C@@H](Cc1ccccc1)[C@H](O)C(=O)N1CSC[C@H]1C(=O)NCC(N)=O [Example 172, 1-Naphthoxyacetyl-Msa-(2S,3S)-AHPBA-Thz-Gly-NH2] | 77.9%
42 | Benzyloxycarbonyl-Asn-(2S,3S)-AHPBA-Dtc-NH-tBu [Example 104] | 3.8%
43 | 2-Quinolinecarbonyl-Asn-(2S,3S)-AHPBA-Dtc-NH-tBu [Example 118] | 1.8%
44 | Benzyloxycarbonyl-Asn-(2S,3S)-AHPBA decahydroisoquinoline | 8.6%
45 | Benzyloxycarbonyl-Asn-(2S,3S)-AHPBA-Cpp-NH-tBu [Example 185] | 96.0%
46 | Benzyloxycarbonyl-Asn-(2S,3S)-AHPBA-Tcp-NH-tBu [Example 186] | 99.5%
47 | m-Isopropyloxyphenoxyacetyl-Msa-(2S,3S)-AHPBA-Dtc-NH-tBu [Example 166] | 2.0%
48 | 1-Naphthoxyacetyl-Msa-(2S,3S)-AHPBA-Thz-Pip-O-CH3 [Example 159] | 90.8%
